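Each compound was tested at five concentrations against cells in 96-well plates for 48 hours. GI50: concentration for 50% inhibition of growth. Definition used: TGI = concentration required for complete inhibition of growth.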
Tests used:
Assay in all cases: NCI anticancer screen, dose series, 48 h
UACC-62 melanoma = tested on: UACC-62 melanoma
HOP-18 NSCLC = tested on: HOP-18 NSCLC
SNB-75 CNS = tested on: SNB-75 CNS
M19-MEL melanoma = tested on: M19-MEL melanoma
SW-620 colon = tested on: SW-620 colon
HCT-116 colon = tested on: HCT-116 colon
DMS 114 small cell lung = tested on: DMS 114 small cell lung
EKVX NSCLC = tested on: EKVX NSCLC
SK-MEL-28 melanoma = tested on: SK-MEL-28 melanoma
NCI-H226 lung = tested on: NCI-H226 lung
NCI-H460 lung = tested on: NCI-H460 lung
K-562 leukemia = tested on: K-562 leukemia
SK-MEL-2 melanoma = tested on: SK-MEL-2 melanoma
A498 renal = tested on: A498 renal
DMS 273 small cell lung = tested on: DMS 273 small cell lung
SF-539 CNS = tested on: SF-539 CNS
UACC-257 melanoma = tested on: UACC-257 melanoma
OVCAR-8 ovarian = tested on: OVCAR-8 ovarian
KM12 colon = tested on: KM12 colon
M14 melanoma = tested on: M14 melanoma
IGROV1 ovarian = tested on: IGROV1 ovarian
SK-OV-3 ovarian = tested on: SK-OV-3 ovarian
NCI-H522 lung = tested on: NCI-H522 lung
786-0 renal = tested on: 786-0 renal
RPMI-8226 leukemia = tested on: RPMI-8226 leukemia
MOLT-4 leukemia = tested on: MOLT-4 leukemia
OVCAR-4 ovarian = tested on: OVCAR-4 ovarian
LXFL 529 NSCLC = tested on: LXFL 529 NSCLC
SK-MEL-5 melanoma = tested on: SK-MEL-5 melanoma
HCC-2998 colon = tested on: HCC-2998 colon
DLD-1 colon = tested on: DLD-1 colon
HT29 colon = tested on: HT29 colon
OVCAR-5 ovarian = tested on: OVCAR-5 ovarian
HOP-92 NSCLC = tested on: HOP-92 NSCLC
HOP-62 NSCLC = tested on: HOP-62 NSCLC
SNB-19 CNS = tested on: SNB-19 CNS
A549 NSCLC = tested on: A549 NSCLC
CAKI-1 renal = tested on: CAKI-1 renal
LOX IMVI melanoma = tested on: LOX IMVI melanoma
UO-31 renal = tested on: UO-31 renal
TK-10 renal = tested on: TK-10 renal
HCT-15 colon = tested on: HCT-15 colon
KM20L2 colon = tested on: KM20L2 colon
NCI-H23 lung = tested on: NCI-H23 lung
SNB-78 CNS = tested on: SNB-78 CNS
CCRF-CEM leukemia = tested on: CCRF-CEM leukemia
ACHN renal = tested on: ACHN renal
OVCAR-3 ovarian = tested on: OVCAR-3 ovarian
MALME-3M melanoma = tested on: MALME-3M melanoma
HL-60(TB) leukemia = tested on: HL-60(TB) leukemia
SF-268 CNS = tested on: SF-268 CNS
SF-295 CNS = tested on: SF-295 CNS
COLO 205 colon = tested on: COLO 205 colon
U251 CNS = tested on: U251 CNS
SN12C renal = tested on: SN12C renal

## CN(N=O)C(=O)ON1C(=O)CCC1=O
UACC-62 melanoma
  TGI: > 100 µM
HOP-18 NSCLC
  TGI: > 100 µM
SNB-75 CNS
  TGI: > 100 µM
M19-MEL melanoma
  TGI: > 100 µM
SW-620 colon
  TGI: > 100 µM
HCT-116 colon
  TGI: > 100 µM
DMS 114 small cell lung
  TGI: > 100 µM
EKVX NSCLC
  TGI: > 100 µM
SK-MEL-28 melanoma
  TGI: > 100 µM
NCI-H226 lung
  TGI: > 100 µM
NCI-H460 lung
  TGI: > 100 µM
K-562 leukemia
  TGI: > 100 µM
SK-MEL-2 melanoma
  TGI: > 100 µM
A498 renal
  TGI: > 100 µM
DMS 273 small cell lung
  TGI: > 100 µM
SF-539 CNS
  TGI: > 100 µM
UACC-257 melanoma
  TGI: > 100 µM
OVCAR-8 ovarian
  TGI: > 100 µM
KM12 colon
  TGI: > 100 µM
M14 melanoma
  TGI: > 100 µM
IGROV1 ovarian
  TGI: > 100 µM
SK-OV-3 ovarian
  TGI: > 100 µM
NCI-H522 lung
  TGI: > 100 µM
786-0 renal
  TGI: > 100 µM
RPMI-8226 leukemia
  TGI: > 100 µM
MOLT-4 leukemia
  TGI: > 100 µM
OVCAR-4 ovarian
  TGI: > 100 µM
LXFL 529 NSCLC
  TGI: > 100 µM
SK-MEL-5 melanoma
  TGI: > 100 µM
HCC-2998 colon
  TGI: > 100 µM
DLD-1 colon
  TGI: > 100 µM
HT29 colon
  TGI: > 100 µM
OVCAR-5 ovarian
  TGI: > 100 µM
HOP-92 NSCLC
  TGI: > 100 µM
HOP-62 NSCLC
  TGI: > 100 µM
SNB-19 CNS
  TGI: > 100 µM
A549 NSCLC
  TGI: > 100 µM
CAKI-1 renal
  TGI: > 100 µM
LOX IMVI melanoma
  TGI: > 100 µM
UO-31 renal
  TGI: > 100 µM
TK-10 renal
  TGI: > 100 µM
HCT-15 colon
  TGI: > 100 µM
KM20L2 colon
  TGI: > 100 µM
NCI-H23 lung
  TGI: > 100 µM
SNB-78 CNS
  TGI: > 100 µM
CCRF-CEM leukemia
  TGI: > 100 µM
ACHN renal
  TGI: > 100 µM
OVCAR-3 ovarian
  TGI: > 100 µM
MALME-3M melanoma
  TGI: > 100 µM
HL-60(TB) leukemia
  TGI: > 100 µM
SF-268 CNS
  TGI: > 100 µM

## O=C1C(=C([O-])c2ccccc2)C(=O)c2ccccc21.O=C1C(=C([O-])c2ccccc2)C(=O)c2ccccc21.[Fe+2]
HOP-18 NSCLC
  GI50: > 100 µM
  TGI: > 100 µM
SNB-75 CNS
  GI50: 61.5 µM
  TGI: > 100 µM
M19-MEL melanoma
  GI50: > 100 µM
  TGI: > 100 µM
SW-620 colon
  GI50: > 100 µM
  TGI: > 100 µM
HCT-116 colon
  GI50: > 100 µM
  TGI: > 100 µM
SF-295 CNS
  GI50: 44 µM
  TGI: > 100 µM
SK-MEL-28 melanoma
  GI50: > 100 µM
  TGI: > 100 µM
NCI-H226 lung
  GI50: > 100 µM
  TGI: > 100 µM
K-562 leukemia
  GI50: 84.9 µM
  TGI: > 100 µM
A498 renal
  GI50: > 100 µM
  TGI: > 100 µM
COLO 205 colon
  GI50: 38.2 µM
  TGI: > 100 µM
SF-539 CNS
  GI50: > 100 µM
  TGI: > 100 µM
UACC-257 melanoma
  GI50: > 100 µM
  TGI: > 100 µM
OVCAR-8 ovarian
  GI50: 72.4 µM
  TGI: > 100 µM
KM12 colon
  GI50: 55.1 µM
  TGI: > 100 µM
M14 melanoma
  GI50: > 100 µM
  TGI: > 100 µM
IGROV1 ovarian
  GI50: > 100 µM
  TGI: > 100 µM
SK-OV-3 ovarian
  GI50: > 100 µM
  TGI: > 100 µM
NCI-H522 lung
  GI50: > 100 µM
  TGI: > 100 µM
786-0 renal
  GI50: > 100 µM
  TGI: > 100 µM
RPMI-8226 leukemia
  GI50: 65.7 µM
  TGI: > 100 µM
MOLT-4 leukemia
  GI50: > 100 µM
  TGI: > 100 µM
U251 CNS
  GI50: 54.9 µM
  TGI: > 100 µM
OVCAR-4 ovarian
  GI50: > 100 µM
  TGI: > 100 µM
SK-MEL-5 melanoma
  GI50: > 100 µM
  TGI: > 100 µM
HCC-2998 colon
  GI50: 69.5 µM
  TGI: > 100 µM
DLD-1 colon
  GI50: > 100 µM
  TGI: > 100 µM
HT29 colon
  GI50: > 100 µM
  TGI: > 100 µM
OVCAR-5 ovarian
  GI50: > 100 µM
  TGI: > 100 µM
HOP-92 NSCLC
  GI50: 16.1 µM
  TGI: 38.6 µM
HOP-62 NSCLC
  GI50: > 100 µM
  TGI: > 100 µM
SNB-19 CNS
  GI50: > 100 µM
  TGI: > 100 µM
A549 NSCLC
  GI50: 54.7 µM
  TGI: > 100 µM
CAKI-1 renal
  GI50: > 100 µM
  TGI: > 100 µM
LOX IMVI melanoma
  GI50: 6.33 µM
  TGI: 23.6 µM
SN12C renal
  GI50: > 100 µM
  TGI: > 100 µM
UO-31 renal
  GI50: 44.8 µM
  TGI: > 100 µM
TK-10 renal
  GI50: 88.3 µM
  TGI: > 100 µM
NCI-H23 lung
  GI50: 58.8 µM
  TGI: > 100 µM
CCRF-CEM leukemia
  GI50: 80.3 µM
  TGI: > 100 µM
ACHN renal
  GI50: > 100 µM
  TGI: > 100 µM
OVCAR-3 ovarian
  GI50: 89.5 µM
  TGI: > 100 µM
MALME-3M melanoma
  GI50: > 100 µM
  TGI: > 100 µM
HL-60(TB) leukemia
  GI50: 80.9 µM
  TGI: > 100 µM
SF-268 CNS
  GI50: > 100 µM
  TGI: > 100 µM

Reference: PubChem BioAssay (NCI)
